From patent publication US20180312493A1, “Antibiotic Compounds, Pharmaceutical Formulations Thereof And Methods And Uses Therefor” (Simon Fraser University, priority 2015, published 2018)
In brackets after ≈: the same amount, converted by molar mass.

Legend:
[1] = tested on: S. aureus (ATCC29213); experiment: In vitro susceptibility, broth microdilution (MIC); assay type: cell-based; conditions: Staphylococcus aureus; S. aureus ATCC29213; 18-24 h, 37 C; read-out: Antimicrobial activity (MIC) S. aureus ATCC29213
Outline: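 CLSI 2-fold serial broth microdilution; K. pneumoniae C238 grown in L-broth, S. aureus ATCC 29213 in Mueller Hinton broth, plates incubated 18–24 h at 37 °C. MIC taken as lowest concentration giving complete growth inhibition by OD600 versus compound-free wells, background-subtracted.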

[2] = tested on: VRE#2 (2010A); experiment: In vitro susceptibility, broth microdilution (MIC); assay type: cell-based, vancomycin resistant Enterococci; conditions: VRE#2 (2010A); read-out: Antimicrobial activity (MIC) VRE#2
Outline: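 MIC determined by CLSI 2-fold broth microdilution in cation-adjusted Mueller–Hinton broth at ~2.5×10^5 CFU/ml, final compound 0.031–64 μg/ml, 18–24 h at 37 °C. MIC is the lowest concentration giving complete growth inhibition by background-corrected OD600 versus compound-free wells; duplicate or triplicate wells, replicated at least twice.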

SMILES	MIC [1]	MIC [2]
C[N+](C)(C)CCON=C(c1c(-c2cc3cc(Cl)ccc3[nH]2)[nH]c2cc(Br)ccc12)C(F)(F)F (racemic) [Compound 221, 2-(((1-(6-Bromo-5′-chloro-1H,1′H-[2,2′-biindol]-3-yl)-2,2,2-trifluoroethylidene)amino)oxy)-N,N,N-trimethylethan-1-aminium Iodide]	1 µg/mL	2 µg/mL
CN(C)CCOC(=O)c1c(/C=C/c2ccc(Cl)cc2)[nH]c2cc(Br)ccc12 [Compound 60, (E)-2-(Dimethylamino)ethyl 6-bromo-2-(4-chlorostyryl)-1H-indole-3-carboxylate]	4 µg/mL (≈ 8.93 µM)	
NCCOc1cc2[nH]c(-c3cc4ccc(Br)cc4[nH]3)cc2cc1Cl [Compound 201, 2-((6′-Bromo-5-chloro-1H,1′H-[2,2′-biindol]-6-yl)oxy)ethan-1-amine]	4 µg/mL (≈ 9.88 µM)	4 µg/mL (≈ 9.88 µM)
NCCNC(=O)c1c(-c2cc3cc(Cl)ccc3[nH]2)[nH]c2cc(Br)ccc12 [Compound 206, N-(2-Aminoethyl)-6-bromo-5′-chloro-1H,1′H-[2,2′-biindole]-3-carboxamide]	8 µg/mL (≈ 18.5 µM)	4 µg/mL (≈ 9.27 µM)
